According to US20150344444A1, “BET-PROTEIN-INHIBITING DIHYDROXYQUINOXALINONES” (BAYER PHARMA AKTIENGESELLSCHAFT, priority 2012, published 2015):

Columns and labels:
MOLM-13 cells = assay: MOLM-13 cell proliferation assay (alamarBlue); type: cell-based; conditions: inhibition of cell proliferation, 96 hours, human AML cell line
Protocol: (§1) In accordance with the invention, the ability of the substances to inhibit cell proliferation was determined Cell viability was determined by means of the alamarBlue® reagent (Invitrogen) in a Victor X3 Multilabel Reader (Perkin Elmer). The excitation wavelength was 530 nm and the emission wavelength […].
The MOLM-13 cells (DSMZ, ACC 554) were sown at a concentration of 4000 cells/well in 100 μl of growth medium (RPMI1640, 10% FCS) on 96-well microtitre plates.
(§2) After overnight incubation at 37° C., the fluorescence values were determined (CI values). Then the plates were treated with various substance dilutions (1E-5 M, 3E-6 M, 1E-6 M, 3E-7 M, 1E-7 M, 3E-8 M, 1E-8 M) and incubated at 37° C. over 96 hours (MOLM-13, B16F10 cells) or 120 hours (MOLP-8 cells). Subsequently, the fluorescence values were determined (CO values). For the data analysis, the CI values were subtracted from the CO values and the results were compared between cells which had been treated with various dilutions of the substance or only with buffer solution. The IC50 values (substance concentration needed for 50% inhibition of cell proliferation) were calculated therefrom.
MOLM-13 human AML (acute myeloid leukaemia) cell line

MOLP-8 cells = assay: MOLP-8 cell proliferation assay (alamarBlue); type: cell-based; conditions: inhibition of cell proliferation, 120 hours, human multiple myeloma cell line
Protocol: as §1
The MOLP-8 cells (DSMZ, ACC 569) were sown at a concentration of 4000 cells/well in 100 μl of growth medium (RPMI1640, 20% FCS) on 96-well microtitre plates.
as §2
MOLP-8 human multiple myeloma cell line

[1] = target: T1, BRD4 Bromo Domain 1 [BRD4(1)] (Homo sapiens, UniProt O60885); assay: BRD4(1)/acetylated peptide H4 binding assay (TR-FRET); conditions: inhibition of interaction between His6-tagged BRD4(1) (amino acids 67-152) and acetylated histone H4 peptide
T1 construct: N-terminally His6-tagged BRD4(1) (amino acids 67-152); made in house; host or cells: E. coli
Excerpt: Protein-Protein Interaction Assay: BRD4/Acetylated Peptide H4 Binding Assay
1. Assay Description for BRD4 Bromo Domain 1 [BRD4(1)]
To assess the BRD4(1) binding strength of the substances described in this application, the ability thereof to inhibit the interaction between BRD4(1) and acetylated histone H4 in a dose-dependent manner was quantified.
For this purpose, a time-resolved fluorescence resonance energy transfer (TR-FRET) assay was used, which measures the binding between N-terminally His6-tagged BRD4(1) (amino acids 67-152) and a synthetic acetylated histone H4 (Ac-H4) peptide with sequence GRGK(Ac)GGK(Ac)GLGK(Ac)GGAK(Ac)RHGSGSK-biotin. The recombinant BRD4(1) protein produced in house according to Filippakopoulos et al., Cell, 2012, 149:214-231 was expressed in E. coli and purified by means of (Ni-NTA) affinity and (Sephadex G-75) size exclusion chromatography. The Ac-H4 peptide can be purchased, for example, from Biosyntan (Berlin, Germany).
In the assay, typically 11 different concentrations of each substance (0.1 nM, 0.33 nM, 1.1 nM, 3.8 nM, 13 nM, 44 nM, 0.15 μM, 0.51 μM, 1.7 μM, 5.9 μM and 20 μM) were analysed as duplicates on the same microtitre plate. For this purpose, 100-fold concentrated solutions in DMSO were prepared by serial dilutions (1:3.4) of a 2 mM stock solution into a clear, 384-well microtitre plate (Greiner Bio-One, Frickenhausen, Germany). From this, 50 nl were transferred into a black test plate (Greiner Bio-One, Frickenhausen, Germany). The test was started by the addition of 2 μl of a 2.5-fold concentrated BRD4(1) solution (final concentration typically 10 nM in the 5 μl of reaction volume) in aqueous assay buffer [50 mM HEPES pH 7.5, 50 mM sodium chloride (NaCl), 0.25 mM CHAPS and 0.05% serum albumin (BSA)] to the substances in the test plate. This was followed by a 10-minute incubation step at 22° C. for the pre-equilibration of putative complexes between BRD4(1) and the substances.
The mixture was then incubated in the dark at 22° C. for one hour and then at 4° C. for at least 3 hours and for no longer than overnight. The formation of BRD4(1)/Ac-H4 complexes was determined by the measurement of the resonance energy transfer from the streptavidin-Eu cryptate to the anti-6His-XL665 antibody present in the reaction. For this purpose, the fluorescence emission was measured at 620 nm and 665 nm after excitation at 330-350 nm in a TR-FRET measuring instrument, for example a Rubystar or Pherastar (both from BMG Lab Technologies, Offenburg, Germany) or a Viewlux (Perkin-Elmer). The ratio of the emissions at 665 nm and at 622 nm was taken as an indicator of the amount of BRD4(1)/Ac-H4 complexes formed.
The data (ratios) obtained were normalized, with 0% inhibition corresponding to the mean from the measurements for a set of controls (typically 32 data points) in which all the reagents were present. In these, in place of test substances, 50 nl of DMSO (100%) were used Inhibition of 100% corresponded to the mean from the measurements for a set of controls (typically 32 data points) in which all the reagents except BRD4(1) were present. The IC50 was determined by regression analysis based on a 4-parameter equation (minimum, maximum, IC50, Hill; Y=max+(min−max)/(1+(X/IC50)Hill).

B16F10 cells = assay: B16F10 cell proliferation assay (alamarBlue); type: cell-based; conditions: B16-F10; inhibition of cell proliferation, 96 hours, mouse melanoma cell line
Protocol: as §1
The B16F10 cells (ATCC, CRL-6475) were sown at a concentration of 300-500 cells/well in 100 μl of growth medium (DMEM with phenol red, 10% FCS) on 96-well microtitre plates.
as §2
B16F10 mouse melanoma cell line

Question: How did the IC50 (MOLM-13 cells) turn out when C[C@@H]1C(=O)N(C)c2ccc(Nc3ccc(C(=O)NC4CCN(C)CC4)cc3)cc2N1C1CCCC1 [Example 4, 4-{[(3R)-4-cyclopentyl-1,3-dimethyl-2-oxo-1,2,3,4-tetrahydroquinoxalin-6-yl]amino}-N-(1-methylpiperidin-4-yl)benzamide] was run?
Answer: 356 nM

Question: What about the IC50 (MOLP-8 cells) of the same molecule?
Answer: 468 nM

Question: And the IC50 [1]?
Answer: 50 nM

Question: What about the IC50 (B16F10 cells) of the same molecule?
Answer: 643 nM
